Read-outs that look alike come from different tables or passages of the source.
Experiment: Oral exposure in cynomolgus monkeys, compound alone or with excipient in capsules; plasma by LC-MS/MS
Format: in vivo
Conditions: enteric capsule; for MRT inf: read-out: MRT0-∞
Excerpt: The influence of different excipients on the bioavailability of Compound (Ia), Compound 2 and Compound 3 in cynomolgus monkeys was investigated. The excipients tested were sodium phytate, sodium citrate, sodium EDTA, cyclodextrin, sodium taurocholate, sodium polystyrene sulfate, sodium caprate, sodium phosphate, carbomer 971P and palmitoyl carnitine chloride. Generally, an appropriate quantity (as indicated in Table 1) of Compound (Ia), Compound 2 or Compound 3 and an excipient were mixed to homogeneity and transferred to capsules for dosing. In one example, Compound (Ia) (500 mg assay, 1.063 correction factor applied for to account for purity) and 2.75 g of sodium phytate (Sigma) were combined in a mortar and pestle. The mixture was ground to homogeneity then 530 mg of the white powder was transferred to enteric capsules (Size 0) prior to dosing.
[…] Compound (Ia), Compound 2 or Compound 3, either alone, or with excipient, in an enteric capsule was administered via an oral pet piller. Blood samples were collected from a peripheral vessel at designated time points, and centrifuged to obtain plasma.
Plasma samples obtained at each time point from the subjects were prepared by protein precipitation. An aliquot of 50 μL sample was added with 150 μL acetonitrile containing an internal standard ([[[(2R,3S,4R,5R)-5-[6-chloro-4-[[(1S)-2,2,2-trideuterio-1-(2-fluorophenyl)ethyl]amino]pyrazolo[3,4-b]pyridin-1-yl]-3,4-dihydroxyoxolan-2-yl]-dideuteriomethoxy]-hydroxyphosphoryl]methylphosphonic acid, 200 ng/mL in Acetonitrile). The mixture was vortexed for 15 min and then centrifuged at 4500 rpm for 15 min at 4° C. (Sorvall Legend XTR centrifuge, Thermo Scientific, Langenselbold, Germany). 80 μL of the resulting supernatant was transferred into a new plate and mixed with 160 μL water followed by LC-MS/MS analysis.
• API 4000 mass spectrometer (Applied Biosystems, Foster City, Calif.) • Shimadzu Nexera X^2 UHPLC System (Shimadzu Scientific Instruments, Canby, Oreg.) Column: SHISEIDO CAPCELL PAK INERT ADME S3 (2.00 mm×50 mm, Part No. 79001) Mobile Phase A: 8.6 mM Triethylamine, 100 mM HFIP (1,1,1,3,3,3-Hexafluoro-2-propanol) in Water Mobile Phase B: 8.6 mM Triethylamine, and 100 mM HFIP in [Acetonitrile:water (95:5, v/v) Needle wash (weak & strong): Acetone:MeCN:Water (80:20:20, v/v/v) Flow Rate: 0.50 mL/min HPLC Gradient:
• Ionization Mode: Electrospray (ESI) • Detection Mode: Negative MRM (Q1/Q3 transitions: m/z 579.0/157.0 for Compound (Ia) or Compound 3; m/z 584.0/157.0 for Internal Standard); (Q1/Q3 transitions m/z 562.2/157.0 for Compound 2; m/z 584.0/157.0 for Internal Standard)

[1] = male, cynomolgus monkey, plasma, po, 50 mg, Table 2: oral, dose 50 mg, + 275 mg sodium phytate
[2] = male, cynomolgus monkey, plasma, po, 50 mg, Table 2: oral, dose 50 mg, neat
[3] = oral, dose 50 mg, with 275 mg sodium phytate (Sigma-Aldrich, ≥5 mol sodium/mol), fasted

## C[C@H](Nc1cc(Cl)nc2c1cnn2[C@@H]1O[C@H](COP(=O)(O)CP(=O)(O)O)[C@@H](O)[C@H]1O)c1ccccc1F [Ia (•3Na), (((((2R,3S,4R,5R)-5-(6-chloro-4-(((S)-1-(2-fluorophenyl)ethyl)amino)-1H-pyrazolo[3,4-b]pyridin-1-yl)-3,4-dihydroxytetrahydrofuran-2-yl)methoxy)(hydroxy)phosphoryl)methyl)phosphonic acid]
Table 2: oral, dose 50 mg, + 275 mg sodium phytate versus neat
  Exposure Enhancement: 9.1-fold
male, cynomolgus monkey, plasma, po, 10 mg, with 195 mg sodium citrate, 6 mg SDS, fasted
  AUC(0-inf): 1940 ng·h/mL
male, cynomolgus monkey, plasma, po, 10 mg, oral, dose 10 mg, with 195 mg sodium citrate, 6 mg SDS, fasted, read-out: Cmax
  Cmax: 286 ng/mL
[1]
  AUC(0-inf): 122000 ng·h/mL
  AUC(0-t): 88000 ng·h/mL
  Tmax: 3 h
  MRT inf: 35.8 h
male, cynomolgus monkey, plasma, po, 50 mg, Table 2: oral, dose 50 mg, + 275 mg sodium phytate, read-out: Cmax
  Cmax: 3680 ng/mL
[2]
  AUC(0-inf): 13400 ng·h/mL
  AUC(0-t): 10300 ng·h/mL
  Tmax: 1.75 h
  MRT inf: 29.2 h
male, cynomolgus monkey, plasma, po, 50 mg, Table 2: oral, dose 50 mg, neat, read-out: Cmax
  Cmax: 631 ng/mL
male, cynomolgus monkey, plasma, po, 50 mg, neat, fasted
  AUC(0-inf): 13400 ng·h/mL
male, cynomolgus monkey, plasma, po, 50 mg, with 25 mg sodium taurocholate, fasted
  AUC(0-inf): 9300 ng·h/mL
male, cynomolgus monkey, plasma, po, 50 mg, with 50 mg sodium phytate (Sigma-Aldrich), fasted
  AUC(0-inf): 59700 ng·h/mL
male, cynomolgus monkey, plasma, po, 50 mg, with 100 mg Na-EDTA, fasted
  AUC(0-inf): 154000 ng·h/mL
male, cynomolgus monkey, plasma, po, 50 mg, with 100 mg cyclodextrin, fasted
  AUC(0-inf): 8230 ng·h/mL
male, cynomolgus monkey, plasma, po, 50 mg, with 100 mg palmitoyl carnitine chloride, fasted
  AUC(0-inf): 43400 ng·h/mL
male, cynomolgus monkey, plasma, po, 50 mg, with 195 mg sodium citrate, 3 mg SDS, fasted
  AUC(0-inf): 22200 ng·h/mL
male, cynomolgus monkey, plasma, po, 50 mg, with 195 mg sodium citrate, 6 mg SDS, non-fasted animal
  AUC(0-inf): 16500 ng·h/mL
male, cynomolgus monkey, plasma, po, 50 mg, with 195 mg sodium citrate, 6 mg sodium dodecyl sulfate (SDS), fasted
  AUC(0-inf): 38300 ng·h/mL
male, cynomolgus monkey, plasma, po, 50 mg, with 227.5 mg sodium caprate, fasted
  AUC(0-inf): 20300 ng·h/mL
male, cynomolgus monkey, plasma, po, 50 mg, with 275 mg sodium phytate (Sigma-Aldrich, ≥5 mol sodium/mol), fasted
  AUC(0-inf): 109000 ng·h/mL
male, cynomolgus monkey, plasma, po, 50 mg, with 275 mg sodium phytate, dodecasodium, fasted
  AUC(0-inf): 69400 ng·h/mL
male, cynomolgus monkey, plasma, po, 50 mg, with 275 mg sodium phytate, hexasodium, fasted
  AUC(0-inf): 152000 ng·h/mL
male, cynomolgus monkey, plasma, po, 50 mg, with 325 mg sodium polystyrene sulfate, fasted
  AUC(0-inf): 41400 ng·h/mL
male, cynomolgus monkey, plasma, po, 50 mg, with 400 mg sodium phosphate, fasted
  AUC(0-inf): 20500 ng·h/mL
male, cynomolgus monkey, plasma, po, 50 mg, with 7% w/w carbomer 971P, fasted
  AUC(0-inf): 41300 ng·h/mL
male, cynomolgus monkey, plasma, po, 50 mg, oral, dose 50 mg, neat, fasted, read-out: Cmax
  Cmax: 631 ng/mL
male, cynomolgus monkey, plasma, po, 50 mg, oral, dose 50 mg, with 25 mg sodium taurocholate, fasted, read-out: Cmax
  Cmax: 455 ng/mL
male, cynomolgus monkey, plasma, po, 50 mg, oral, dose 50 mg, with 50 mg sodium phytate (Sigma-Aldrich), fasted, read-out: Cmax
  Cmax: 1650 ng/mL
male, cynomolgus monkey, plasma, po, 50 mg, oral, dose 50 mg, with 100 mg Na-EDTA, fasted, read-out: Cmax
  Cmax: 6840 ng/mL
male, cynomolgus monkey, plasma, po, 50 mg, oral, dose 50 mg, with 100 mg cyclodextrin, fasted, read-out: Cmax
  Cmax: 526 ng/mL
male, cynomolgus monkey, plasma, po, 50 mg, oral, dose 50 mg, with 100 mg palmitoyl carnitine chloride, fasted, read-out: Cmax
  Cmax: 3660 ng/mL
male, cynomolgus monkey, plasma, po, 50 mg, oral, dose 50 mg, with 195 mg sodium citrate, 3 mg SDS, fasted, read-out: Cmax
  Cmax: 922 ng/mL
male, cynomolgus monkey, plasma, po, 50 mg, oral, dose 50 mg, with 195 mg sodium citrate, 6 mg SDS, non-fasted animal, read-out: Cmax
  Cmax: 863 ng/mL
male, cynomolgus monkey, plasma, po, 50 mg, oral, dose 50 mg, with 195 mg sodium citrate, 6 mg sodium dodecyl sulfate (SDS), fasted, read-out: Cmax
  Cmax: 1520 ng/mL
male, cynomolgus monkey, plasma, po, 50 mg, oral, dose 50 mg, with 227.5 mg sodium caprate, fasted, read-out: Cmax
  Cmax: 912 ng/mL
male, cynomolgus monkey, plasma, po, 50 mg, oral, dose 50 mg, with 275 mg sodium phytate (Sigma-Aldrich, ≥5 mol sodium/mol), fasted, read-out: Cmax
  Cmax: 3570 ng/mL
male, cynomolgus monkey, plasma, po, 50 mg, oral, dose 50 mg, with 275 mg sodium phytate, dodecasodium, fasted, read-out: Cmax
  Cmax: 2970 ng/mL
male, cynomolgus monkey, plasma, po, 50 mg, oral, dose 50 mg, with 275 mg sodium phytate, hexasodium, fasted, read-out: Cmax
  Cmax: 4440 ng/mL
male, cynomolgus monkey, plasma, po, 50 mg, oral, dose 50 mg, with 325 mg sodium polystyrene sulfate, fasted, read-out: Cmax
  Cmax: 1420 ng/mL
male, cynomolgus monkey, plasma, po, 50 mg, oral, dose 50 mg, with 400 mg sodium phosphate, fasted, read-out: Cmax
  Cmax: 700 ng/mL
male, cynomolgus monkey, plasma, po, 50 mg, oral, dose 50 mg, with 7% w/w carbomer 971P, fasted, read-out: Cmax
  Cmax: 1480 ng/mL
male, cynomolgus monkey, plasma, po, 100 mg, with 275 mg sodium phytate (Sigma-Aldrich), fasted
  AUC(0-inf): 237000 ng·h/mL
male, cynomolgus monkey, plasma, po, 100 mg, oral, dose 100 mg, with 275 mg sodium phytate (Sigma-Aldrich), fasted, read-out: Cmax
  Cmax: 5760 ng/mL
oral, dose 50 mg, with 50 mg sodium phytate (Sigma-Aldrich), relative to 50 mg Ia ( 3Na) without absorption enhancer
  Exposure Enhancement: 4.5-fold^b
oral, dose 50 mg, with 100 mg Na-EDTA, relative to 50 mg Ia ( 3Na) without absorption enhancer
  Exposure Enhancement: 11.5-fold^b
oral, dose 50 mg, with 100 mg palmitoyl carnitine chloride, relative to 50 mg Ia ( 3Na) without absorption enhancer
  Exposure Enhancement: 3.2-fold^b
oral, dose 50 mg, with 195 mg sodium citrate, 3 mg SDS, relative to 50 mg Ia ( 3Na) neat
  Exposure Enhancement: 1.7-fold
oral, dose 50 mg, with 195 mg sodium citrate, 6 mg SDS, non-fasted animal, relative to 50 mg Ia ( 3Na) without absorption enhancer
  Exposure Enhancement: 1.2-fold^b
oral, dose 50 mg, with 195 mg sodium citrate, 6 mg SDS, relative to 50 mg Ia ( 3Na) without absorption enhancer
  Exposure Enhancement: 2.9-fold^b
oral, dose 50 mg, with 227.5 mg sodium caprate, relative to 50 mg Ia ( 3Na) without absorption enhancer
  Exposure Enhancement: 1.5-fold^b
oral, dose 50 mg, with 275 mg sodium phytate (Sigma-Aldrich), relative to 50 mg Ia ( 3Na) without absorption enhancer
  Exposure Enhancement: 9.1-fold^b
oral, dose 50 mg, with 275 mg sodium phytate (Sigma-Aldrich), relative to 50 mg Ia ( 3Na) without absorption enhancer, listed as Ia ( 3Na)
  Exposure Enhancement: 8.1-fold^b
[3]
  AUC0-∞: 122,000 h*ng/mL
  Cmax: 3,680 ng/mL
oral, dose 50 mg, with 275 mg sodium phytate, dodecasodium, relative to 50 mg Ia ( 3Na) without absorption enhancer
  Exposure Enhancement: 5.2-fold^b
oral, dose 50 mg, with 275 mg sodium phytate, hexasodium, relative to 50 mg Ia ( 3Na) without absorption enhancer
  Exposure Enhancement: 11.4-fold^b
oral, dose 50 mg, with 325 mg sodium polystyrene sulfate, relative to 50 mg Ia ( 3Na) without absorption enhancer
  Exposure Enhancement: 3.1-fold^b
oral, dose 50 mg, with 400 mg sodium phosphate, relative to 50 mg Ia ( 3Na) without absorption enhancer
  Exposure Enhancement: 1.9-fold^b
oral, dose 50 mg, with 7% w/w carbomer 971P, relative to 50 mg Ia ( 3Na) without absorption enhancer
  Exposure Enhancement: 3.1-fold^b

From patent US11633416B1, “Oral formulations of CD73 compounds” (ARCUS BIOSCIENCES, INC., priority 2020, dated 2023)
